Assay results taken from BindingDB's records for patent US20240132503 (Ocumension Therapeutics (Suzhou) Co., 2024).

Biological target: Tyrosine-protein kinase SYK (Homo sapiens, UniProt P43405)
Assay: In Vitro Evaluation of Inhibitory Activity Against Syk Protein Kinase
Method: Test Procedure and Method:(a) Compound dilution and microplate injection1) Compound powder was weighed and dissolved in a specific amount of DMSO at an initial concentration of 10 mM.2) The compound was diluted to have a concentration of 0.74 mM, POD18 was used for microplate injection by 135 nL per well, an initial concentration of the compound was 10 μM, and 11 concentrations and 3-fold descending serial dilution were carried out.(b) Reaction stage of enzyme and substrate1) Preparation of test buffer dilution: 5×HTRF buffer in the kit was diluted to 1×HTRF buffer, and a specified amount of DTT and MgCl2 solution were added for later use.2) A Syk enzyme reaction solution was prepared with 1×HTRF buffer, so that a final reaction concentration of Syk kinase was 0.0156 ng/μL.3) A TK-Substrate-biotin/ATP mixture was prepared, so that a final substrate concentration was controlled to be 0.2 μM. An ATP concentration was controlled to be 2 μM.4) A mutidorp injector was used to add the sample, 5 μL of Syk enzyme solution and TK-Substrate-biotin/ATP mixture were added to each well, and incubated at 23° C. for 1 hour.

IC50: 25 nM
Structure (SMILES): c1cc(N2CCOCC2)ccc1NC1=Nc2ccc(-c3cn[nH]c3)cc2N2CCN=C12 [US20240132503, Compound Crystal form A Compound Formula 1]
